Biological target: SOS1/KRAS WT (Homo sapiens (Human), UniProt Q07889)
Assay: SOS1/KRAS WT HTRF binding assay (FRET-based protein-protein interaction)
Conditions: inhibition of His6-SOS1 (aa564-1049, 40 nM) binding to GST-KRAS-WT (aa1-188, 40 nM); at least two independent replicates; read-out: SOS1/KRAS WT HTRF Binding assay pIC50 (converted)
Outline: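 Time-resolved FRET at 665 nm, read 4 hr after adding anti-GST-Eu(K) (4 nM) and anti-6His-XL665 (20 nM), tracked SOS1(aa564-1049)–KRAS WT(aa1-188) association. Both proteins were at 40 nM, pre-incubated 60 min at room temperature with compound. Max/min signals came from 0.05% DMSO and 10 μM reference, with four-parameter logistic IC50.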

Sequence of SOS1/KRAS WT (Q07889 564-1049): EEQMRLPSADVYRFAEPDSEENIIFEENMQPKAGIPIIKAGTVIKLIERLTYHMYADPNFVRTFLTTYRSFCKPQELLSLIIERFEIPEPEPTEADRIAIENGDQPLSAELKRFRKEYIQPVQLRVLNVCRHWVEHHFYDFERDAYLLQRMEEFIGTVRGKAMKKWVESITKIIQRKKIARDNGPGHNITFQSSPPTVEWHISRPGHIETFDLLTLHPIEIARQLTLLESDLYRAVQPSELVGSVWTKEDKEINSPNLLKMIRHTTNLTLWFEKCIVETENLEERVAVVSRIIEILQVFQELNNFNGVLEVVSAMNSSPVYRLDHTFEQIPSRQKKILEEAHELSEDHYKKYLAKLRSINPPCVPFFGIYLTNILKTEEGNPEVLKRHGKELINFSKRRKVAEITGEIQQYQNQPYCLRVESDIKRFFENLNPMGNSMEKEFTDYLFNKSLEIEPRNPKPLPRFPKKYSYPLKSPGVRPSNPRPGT

IC50 [nM]	SMILES
14.5	COC1(C)C(=O)N(C)c2cc3c(N[C@H](C)c4cc(F)cc(C(F)(F)C(C)(C)O)c4)nnc(C)c3cc21 (stereo partly drawn) [Compound 175, 3-methoxy-1,3,5-trimethyl-8-[[(1R)-1-[3-(1,1-difluoro-2-hydroxy-2-methyl-propyl)-5-fluoro-phenyl]ethyl]amino]pyrrolo[2,3-g]phthalazin-2-one]
12.9	Cc1c([C@@H](C)Nc2nnc(C)c3cc4c(cc23)N(C2CC2)C(=O)C4(C)C)cccc1C(F)(F)C(C)(C)O [Compound 127, 1-cyclopropyl-3,3,5-trimethyl-8-[[(1R)-1-[3-(1,1-difluoro-2-hydroxy-2-methyl-propyl)-2-methyl-phenyl]ethyl]amino]pyrrolo[2,3-g]phthalazin-2-one]
25.1	CCC1(OC)C(=O)N(C)c2cc3c(C)nnc(N[C@H](C)c4cccc(C(F)(F)CO)c4)c3cc21 (stereo partly drawn) [Compound 196, 5-[[(1R)-1-[3-(1,1-difluoro-2-hydroxy-ethyl)phenyl]ethyl]amino]-3-ethyl-3-methoxy-1,8-dimethyl-pyrrolo[2,3-g]phthalazin-2-one]
10.2	CCN1C(=O)C(C)(OC)c2cc3c(C)nnc(N[C@H](C)c4cccc(C(F)(F)C(C)(C)O)c4C)c3cc21 (stereo partly drawn) [Compound 169, 1-ethyl-3-methoxy-3,5-dimethyl-8-[[(1R)-1-[3-(1,1-difluoro-2-hydroxy-2-methyl-propyl)-2-methyl-phenyl]ethyl]amino]pyrrolo[2,3-g]phthalazin-2-one]
120	Cc1c(C2=CCNC2)cccc1[C@@H](C)Nc1nnc(C)c2cc3c(cc12)n(C)c(=O)n3C [Compound 158, 1,3,8-trimethyl-5-[[(1R)-1-[3-(2,5-dihydro-1H-pyrrol-3-yl)-2-methyl-phenyl]ethyl]amino]imidazo[4,5-g]phthalazin-2-one]
15.8	Cc1c(C2CC2)cccc1[C@@H](C)Nc1nnc(C)c2cc3c(cc12)n(C)c(=O)n3C [Compound 154, 1,3,8-trimethyl-5-[[(1R)-1-(3-cyclopropyl-2-methyl-phenyl)ethyl]amino]imidazo[4,5-g]phthalazin-2-one]
11.7	CCN1C(=O)C(C)(OC)c2cc3c(C)nnc(N[C@H](C)c4cccc(C(F)(F)C(C)(C)O)c4)c3cc21 (stereo partly drawn) [Compound 173, 1-ethyl-3-methoxy-3,5-dimethyl-8-[[(1R)-1-[3-(1,1-difluoro-2-hydroxy-2-methyl-propyl)phenyl]ethyl]amino]pyrrolo [2,3-g]phthalazin-2-one]
10.7	COC1(C)C(=O)N(C)c2cc3c(C)nnc(N[C@H](C)c4cccc(C(F)(F)CO)c4F)c3cc21 (stereo partly drawn) [Compound 176, 3-methoxy-1,3,8-trimethyl-5-[[(1R)-1-[3-(1,1-difluoro-2-hydroxy-ethyl)-2-fluoro-phenyl]ethyl]amino]pyrrolo[3,2-g]phthalazin-2-one]
6.61	Cc1nnc(N[C@H](C)c2cccc(C(F)(F)C(C)(C)O)c2)c2cc3c(cc12)N(C)C(=O)C31CCOCC1 [Compound 125, 1,8-dimethyl-5-[[(1R)-1-[3-(1,1-difluoro-2-hydroxy-2-methyl-propyl)phenyl]ethyl]amino]spiro [pyrrolo[3,2-g]phthalazine-3,4′-tetrahydropyran]-2-one]
204	Cc1c(C2=CCOCC2)cccc1[C@@H](C)Nc1nnc(C)c2cc3c(cc12)n(C)c(=O)n3C [Compound 157, 5-[[(1R)-1-[3-(3,6-dihydro-2H-pyran-4-yl)-2-methyl-phenyl]ethyl]amino]-1,3,8-trimethyl-imidazo[4,5-g]phthalazin-2-one]

Continued, compound first:

SMILES	IC50 [nM]
COCCn1c(=O)n(C)c2cc3c(C)nnc(N[C@H](C)c4cccc(C(F)(F)F)c4)c3cc21 [Compound 8, 3-(2-methoxyethyl)-1,8-dimethyl-5-[[(1R)-1-[3-(trifluoromethyl)phenyl]ethyl]amino]imidazo[4,5-g]phthalazin-2-one]	12.6
Cc1nnc(N[C@H](C)c2cccc(C(F)(F)CN)c2F)c2cc3c(cc12)n(C)c(=O)n3C(C)(C)C [Compound 53, 3-tert-butyl-1,8-dimethyl-5-[[(1R)-1-[3-(2-amino-1,1-difluoro-ethyl)-2-fluoro-phenyl]ethyl]amino]imidazo[4,5-g]phthalazin-2-one]	5.01
Cc1nnc(N[C@H](C)c2cccc(C(F)(F)C(C)(C)O)c2)c2cc3c(cc12)N(C)C(=O)C3(C)C [Compound 96, 1,3,3,8-tetramethyl-5-[[(1R)-1-[3-(1,1-difluoro-2-hydroxy-2-methyl-propyl)phenyl]ethyl]amino]pyrrolo [3,2-g]phthalazin-2-one]	13.5
Cc1c([C@@H](C)Nc2nnc(C)c3cc4c(cc23)n(C(C)C)c(=O)n4C)cccc1C(F)(F)CO [Compound 85, 3-isopropyl-1,8-dimethyl-5-[[(1R)-1-[3-(1,1-difluoro-2-hydroxy-ethyl)-2-methyl-phenyl]ethyl]amino]imidazo[4,5-g]phthalazin-2-one]	8.32
Cc1nnc(N[C@H](C)c2cccc3[nH]ncc23)c2cc3c(cc12)n(C)c(=O)n3C [Compound 60, 5-[[(1R)-1-(1H-indazol-4-yl)ethyl]amino]-1,3,8-trimethyl-imidazo[4,5-g]phthalazin-2-one]	209
Cc1nnc(N[C@H](C)c2cccc(C(F)(F)F)c2F)c2cc3c(cc12)n(C)c(=O)n3C [Compound 40, 1,3,8-trimethyl-5-[[(1R)-1-[2-fluoro-3-(trifluoromethyl)phenyl]ethyl]amino]imidazo[4,5-g]phthalazin-2-one]	8.91
COCC(F)(F)c1cccc([C@@H](C)Nc2nnc(C)c3cc4c(cc23)n(C)c(=O)n4C)c1F [Compound 36, 5-[[(1R)-1-[3-(1,1-difluoro-2-methoxy-ethyl)-2-fluoro-phenyl]ethyl]amino]-1,3,8-trimethyl-imidazo[4,5-g]phthalazin-2-one]	12
Cc1nnc(N[C@H](C)c2cccc(C(F)(F)F)c2)c2cc3c(cc12)n(C)c(=O)n3C1CCC1 [Compound 22, 3-cyclobutyl-1,8-dimethyl-5-[[(1R)-1-[3-(trifluoromethyl)phenyl]ethyl]amino] imidazo[4,5-g]phthalazin-2-one]	11.5
Cc1nnc(NC(C)c2cccc(C(F)(F)F)c2)c2cc3c(cc12)n(C)c(=O)n3C1CCCC1 (centres unmarked) [Compound 1, 3-cyclopentyl-1,8-dimethyl-5-[1-[3-(trifluoromethyl)phenyl]-ethylamino]^− imidazo[4,5-g]phthalazin-2-one]	37.2
Cc1c(C#N)cccc1[C@@H](C)Nc1nnc(C)c2cc3c(cc12)n(C(C)C)c(=O)n3C [Compound 45, 2-methyl-3-[(1R)-1-[(3-isopropyl-1,8-dimethyl-2-oxo-imidazo[4,5-g]phthalazin-5-yl)amino]ethyl]benzonitrile]	9.77
Cc1nnc(N[C@H](C)c2cccc(C(F)(F)CO)c2F)c2cc3c(cc12)C(C)(C)C(=O)N3C [Compound 109, 1,3,3,5-tetramethyl-8-[[(1R)-1-[3-(1,1-difluoro-2-hydroxy-ethyl)-2-fluoro-phenyl]ethyl]amino]pyrrolo[2,3-g]phthalazin-2-one]	7.08
CCn1c(=O)n(C)c2cc3c(C)nnc(N[C@H](C)c4cccc(C(F)(F)CO)c4F)c3cc21 [Compound 19, 3-ethyl-1,8-dimethyl-5-[[(1R)-1-[3-(1,1-difluoro-2-hydroxy-ethyl)-2-fluoro-phenyl]ethyl]amino]imidazo[4,5-g]phthalazin-2-one]	9.12
Cc1nnc(N[C@H](C)c2cccc(C(F)(F)CO)c2)c2cc3c(cc12)n(C)c(=O)n3C(C)(C)C [Compound 80, 3-tert-butyl-1,8-dimethyl-5-[[(1R)-1-[3-(1,1-difluoro-2-hydroxy-ethyl)phenyl]ethyl]amino]imidazo [4,5-g]phthalazin-2-one]	6.17
Cc1nnc(N[C@H](C)c2cccc(C(F)(F)C(C)(C)O)c2F)c2cc3c(cc12)C(C)(C)C(=O)N3C [Compound 46, 1,3,3,5-tetramethyl-8-[[(1R)-1-[3-(1,1-difluoro-2-hydroxy-2-methyl-propyl)-2-fluoro-phenyl]ethyl]amino]pyrrolo[2,3-g]phthalazin-2-one]	11
CCn1c(=O)n(C)c2cc3c(C)nnc(N[C@H](C)c4cccc(C(F)(F)F)c4)c3cc21 [Compound 9, 3-ethyl-1,8-dimethyl-5-[[(1R)-1-[3-(trifluoromethyl)phenyl]ethyl]amino] imidazo[4,5-g]phthalazin-2-one]	12
Cc1c(C#N)cccc1[C@@H](C)Nc1nnc(C)c2cc3c(cc12)N(C)C(=O)C3(C)C [Compound 48, 2-methyl-3-[(1R)-1-[(1,3,3,5-tetramethyl-2-oxo-pyrrolo[3,2-g]phthalazin-8-yl)amino]ethyl]benzonitrile]	13.5
COC1(C)C(=O)N(C)c2cc3c(N[C@H](C)c4cccc(C(F)(F)C(C)(C)O)c4)nnc(C)c3cc21 (stereo partly drawn) [Compound 90, 3-methoxy-1,3,5-trimethyl-8-[[(1R)-1-[3-(1,1-difluoro-2-hydroxy-2-methyl-propyl)phenyl]ethyl]amino]pyrrolo [2,3-g]phthalazin-2-one]	10.7
Cc1nnc(N[C@H](C)c2cccc(C(F)(F)F)c2)c2cc3c(cc12)OC1(CC1)C(=O)N3C(C)C [Compound 25, 4′-isopropyl-9′-methyl-6′-[[(1R)-1-[3-(trifluoromethyl)phenyl]ethyl]amino]spiro[cyclopropane-1,2′-pyridazino[4,5-g][1,4]benzoxazine]-3′-one]	63.1
COC1(C)C(=O)N(C)c2cc3c(N[C@H](C)c4cccc(C(F)(F)C(C)(C)O)c4F)nnc(C)c3cc21 (stereo partly drawn) [Compound 75, 3-methoxy-1,3,5-trimethyl-8-[[(1R)-1-[3-(1,1-difluoro-2-hydroxy-2-methyl-propyl)-2-fluoro-phenyl]ethyl]amino]pyrrolo[2,3-g]phthalazin-2-one]	8.71

Reference: patent US20250197407A1 (Jazz Pharmaceuticals Ireland Limited, priority 2022, published 2025)
